The test system of this assay is P. falciparum (NF54 or 3D7 strain). Kind of assay: Assay for P. falciparum proliferation in infected human blood cells (SYBR Green). Type of assay: cell-based, Plasmodium falciparum. To be noted: NF54 or 3D7 infected human erythrocytes, 72 hours, read-out: EC50 (nM), inhibitory efficacy in delaying P. falciparum proliferation in infected human blood cells. The gist of the method:
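NF54 or 3D7 parasites in O+ human erythrocytes at 2.5% hematocrit and 0.3% parasitemia final, exposed to compounds 72 h at 37 °C under 93% N2/4% CO2/3% O2.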

Where [1] appears, read: Plasmodium falciparum, Erythrocyte, 72 h.

Molecules are shown by their SMILES. Where two headings read alike, the source gives them in different places.

In the case of `CC(C)[C@@H](N)C(=O)Nc1ccc(-c2cnc3cnc(C(=O)N(C)c4ccc(C#N)cc4)cn23)cc1` [Compound 286, 3-{4-[(2R)-2-amino-3-methylbutanamido]phenyl}-N-(4-cyanophenyl)-N-methylimidazo[1,2-a]pyrazine-6-carboxamide], the EC50 under setting [1] was 402 nM. Same read-out and setting: as for `Cc1ccc(N(C)Cc2cn3c(-c4ccc(C(F)(F)F)cc4)cnc3cn2)nc1` [Compound 287, N,5-dimethyl-N-({3-[4-(trifluoromethyl)phenyl]imidazo[1,2-a]pyrazin-6-yl}methyl)pyridin-2-amine], the figure is 972 nM; as for `COc1ncc(N(C)C(=O)c2cn3c(-c4ccc(C(F)(F)F)cc4)cnc3cn2)cc1C` [Compound 288, N-(6-methoxy-5-methylpyridin-3-yl)-N-methyl-3-[4-(trifluoromethyl)phenyl]imidazo[1,2-a]pyrazine-6-carboxamide], 565 nM; as for `Cc1ccc(C(=O)N(C)c2cn3c(-c4ccc(C(F)(F)F)cc4)cnc3cn2)cc1` [Compound 289, N,4-dimethyl-N-{3-[4-(trifluoromethyl)phenyl]imidazo[1,2-a]pyrazin-6-yl}benzamide], 1500 nM. Same read-out and setting: as for `COc1cccc(N(C)C(=O)c2cn3c(-c4ccc(C(F)(F)F)cc4)cnc3cn2)n1` [Compound 290, N-(6-methoxypyridin-2-yl)-N-methyl-3-[4-(trifluoromethyl)phenyl]imidazo[1,2-a]pyrazine-6-carboxamide], the figure is 784 nM. The same measure, in the same setting: next, `CN(C)CCNC(=O)c1ccc(-c2cnc3cnc(C(=O)N(C)c4ccc(C#N)cc4)cn23)cc1` [Compound 291, N-(4-cyanophenyl)-3-(4-{[2-(dimethylamino)ethyl]carbamoyl}phenyl)-N-methylimidazo[1,2-a]pyrazine-6-carboxamide]: 1160 nM; `CN(C(=O)c1cn2c(-c3ccc(C(F)(F)F)cc3)cnc2cn1)c1ccc(C#N)cc1F` [Compound 293, N-(4-cyano-2-fluorophenyl)-N-methyl-3-[4-(trifluoromethyl)phenyl]imidazo[1,2-a]pyrazine-6-carboxamide]: 76 nM; `CN(C(=O)N1CCC(C)(C)CC1)c1cn2c(-c3ccc(C(F)(F)F)cc3)cnc2cn1` [Compound 294, N,4,4-trimethyl-N-{3-[4-(trifluoromethyl)phenyl]imidazo[1,2-a]pyrazin-6-yl}piperidine-1-carboxamide]: 2120 nM.

Take `CN(C(=O)c1cn2c(-c3ccc(NC(=O)CN)nc3)cnc2cn1)c1ccc(C#N)cc1` [Compound 295, 3-[6-(2-aminoacetamido)pyridin-3-yl]-N-(4-cyanophenyl)-N-methylimidazo[1,2-a]pyrazine-6-carboxamide]: the EC50 under setting [1] is 237 nM. Still for that read-out and setting: as for `COc1cc(N(C)C(=O)c2cn3c(-c4ccc(C(F)(F)F)cc4)cnc3cn2)ccn1` [Compound 296, N-(2-methoxypyridin-4-yl)-N-methyl-3-[4-(trifluoromethyl)phenyl]imidazo[1,2-a]pyrazine-6-carboxamide], the figure is 1280 nM. The same measure, in the same setting: as for `Cc1ccc(-c2cnc3cnc(C(=O)N(C)c4ccc(C#N)cc4)cn23)cn1` [Compound 297, N-(4-cyanophenyl)-N-methyl-3-(6-methylpyridin-3-yl)imidazo[1,2-a]pyrazine-6-carboxamide], the figure is 1290 nM. The same measure, in the same setting: as for `CCn1nccc1N(C)C(=O)c1cn2c(-c3ccc(C(F)(F)F)cc3)cnc2cn1` [Compound 298, N-(1-ethyl-1H-pyrazol-5-yl)-N-methyl-3-[4-(trifluoromethyl)phenyl]imidazo[1,2-a]pyrazine-6-carboxamide], the figure is 1070 nM; as for `Cc1cc(N(C)C(=O)c2cn3c(-c4ccc(C(F)(F)F)cc4)cnc3cn2)ccn1` [Compound 299, N-methyl-N-(2-methylpyridin-4-yl)-3-[4-(trifluoromethyl)phenyl]imidazo[1,2-a]pyrazine-6-carboxamide], 1130 nM; as for `CN(C(=O)c1cn2c(-c3ccc(NC(C)(C)CNC(=O)OC(C)(C)C)cc3)cnc2cn1)c1ccc(C#N)cc1` [Compound 300, tert-butyl N-{2-[(4-{6-[(4-cyanophenyl)(methyl)carbamoyl]imidazo[1,2-a]pyrazin-3-yl}phenyl)amino]-2-methylpropyl}carbamate], 2990 nM. Turning to `CN(C(=O)c1cn2c(-c3ccc4[nH]ccc4c3)cnc2cn1)c1ccc(Cl)nc1` [Compound 301, N-(6-chloropyridin-3-yl)-3-(1H-indol-5-yl)-N-methylimidazo[1,2-a]pyrazine-6-carboxamide], under setting [1], the EC50 came to 1200 nM.

As to `COc1ccc(-c2ccc(N(C)C(=O)c3cn4c(-c5ccc(OC)cc5C)cnc4cn3)cn2)c(C)c1` [Compound 302, 3-(4-methoxy-2-methylphenyl)-N-[6-(4-methoxy-2-methylphenyl)pyridin-3-yl]-N-methylimidazo[1,2-a]pyrazine-6-carboxamide], the EC50 under setting [1] came out at 1850 nM.

Turning to `COc1ccncc1N(C)C(=O)c1cn2c(-c3ccc(C(F)(F)F)cc3)cnc2cn1` [Compound 303, N-(4-methoxypyridin-3-yl)-N-methyl-3-[4-(trifluoromethyl)phenyl]imidazo[1,2-a]pyrazine-6-carboxamide], under setting [1], the EC50 was 1280 nM. Still for that read-out and setting: next, `Cc1cc(N(C)C(=O)c2cn3c(-c4ccc(C(F)(F)F)cc4)cnc3cn2)cnc1Cl` [Compound 304, N-(6-chloro-5-methylpyridin-3-yl)-N-methyl-3-[4-(trifluoromethyl)phenyl]imidazo[1,2-a]pyrazine-6-carboxamide]: 452 nM.

For `O=C(c1cn2c(-c3ccc(C(F)(F)F)cc3)cnc2cn1)N1CCOc2cc(F)ccc21` [Compound 305, 7-fluoro-4-({3-[4-(trifluoromethyl)phenyl]imidazo[1,2-a]pyrazin-6-yl}carbonyl)-3,4-dihydro-2H-1,4-benzoxazine], the EC50 under setting [1] came out at 457 nM.

As for `O=C(c1cn2c(-c3ccc(C(F)(F)F)cc3)cnc2cn1)N1CCOc2ccccc21` [Compound 306, ({3-[4-(trifluoromethyl)phenyl]imidazo[1,2-a]pyrazin-6-yl}carbonyl)-3,4-dihydro-2H-1,4-benzoxazine], the EC50 amounted to 607 nM. For `CN(C(=O)c1cn2c(-c3ccc(NC(=O)C4(CN)CC4)cc3)cnc2cn1)c1ccc(C#N)cc1` [Compound 307, 3-(4-{[1-(aminomethyl)cyclopropane]amido}phenyl)-N-(4-cyanophenyl)-N-methylimidazo[1,2-a]pyrazine-6-carboxamide], the EC50 under setting [1] stood at 1070 nM.

As to `CN(C(=O)c1ccc(C(F)(F)F)nc1)c1cn2c(-c3ccc(C(F)(F)F)cc3)cnc2cn1` [Compound 308, N-methyl-6-(trifluoromethyl)-N-{3-[4-(trifluoromethyl)phenyl]imidazo[1,2-a]pyrazin-6-yl}pyridine-3-carboxamide], the EC50 under setting [1] is 2020 nM. Consider `Cc1ccncc1N(C)C(=O)c1cn2c(-c3ccc(C(F)(F)F)cc3)cnc2cn1` [Compound 309, N-methyl-N-(4-methylpyridin-3-yl)-3-[4-(trifluoromethyl)phenyl]imidazo[1,2-a]pyrazine-6-carboxamide], for which the EC50 under setting [1] was found to be 611 nM. For the compound `CCOc1ccnc(N(C)C(=O)c2cn3c(-c4ccc(C(F)(F)F)cc4)cnc3cn2)c1` [Compound 310, N-(4-ethoxypyridin-2-yl)-N-methyl-3-[4-(trifluoromethyl)phenyl]imidazo[1,2-a]pyrazine-6-carboxamide], under setting [1], the EC50 turned out to be 2480 nM. Take `COc1ccc(C(=O)N(C)c2cn3c(-c4ccc(C(F)(F)F)cc4)cnc3cn2)cc1` [Compound 311, 4-methoxy-N-methyl-N-{3-[4-(trifluoromethyl)phenyl]imidazo[1,2-a]pyrazin-6-yl}benzamide]: the EC50 under setting [1] came to 2780 nM.

`CN(C(=O)c1cn2c(-c3cnc4[nH]ccc4c3)cnc2cn1)c1ccc(Cl)nc1` [Compound 312, N-(6-chloropyridin-3-yl)-N-methyl-3-{1H-pyrrolo[2,3-b]pyridin-5-yl}imidazo[1,2-a]pyrazine-6-carboxamide]: the EC50 under setting [1] was 2640 nM. Still for that read-out and setting: as for `CN(C(=O)c1cn2c(-c3ccc(C(F)(F)F)cc3)cnc2cn1)c1ccc(-n2cncn2)cc1` [Compound 313, N-methyl-N-[4-(1H-1,2,4-triazol-1-yl)phenyl]-3-[4-(trifluoromethyl)phenyl]imidazo[1,2-a]pyrazine-6-carboxamide], the figure is 1320 nM; as for `CN(C(=O)c1cn2c(-c3ccc(NS(C)(=O)=O)cc3)cnc2cn1)c1ccc(C#N)cc1` [Compound 314, N-(4-cyanophenyl)-3-(4-methanesulfonamidophenyl)-N-methylimidazo[1,2-a]pyrazine-6-carboxamide], 1040 nM; as for `N#Cc1ccc2c(c1)OCCN2C(=O)c1cn2c(-c3ccc(C(F)(F)F)cc3)cnc2cn1` [Compound 315, 4-({3-[4-(trifluoromethyl)phenyl]imidazo[1,2-a]pyrazin-6-yl}carbonyl)-3,4-dihydro-2H-1,4-benzoxazine-7-carbonitrile], 2420 nM. The same measure, in the same setting: as for `CS(=O)(=O)c1ccc2c(c1)CCCN2C(=O)c1cn2c(-c3ccc(C(F)(F)F)cc3)cnc2cn1` [Compound 316, 6-methanesulfonyl-1-({3-[4-(trifluoromethyl)phenyl]imidazo[1,2-a]pyrazin-6-yl}carbonyl)-1,2,3,4-tetrahydroquinoline], the figure is 1890 nM; as for `CN(C(=O)c1cn2c(-c3ccc(C(F)(F)F)cc3)cnc2cn1)c1ccc(S(C)(=O)=O)cn1` [Compound 317, N-(5-methanesulfonylpyridin-2-yl)-N-methyl-3-[4-(trifluoromethyl)phenyl]imidazo[1,2-a]pyrazine-6-carboxamide], 1900 nM; as for `COC(=O)Nc1ccc(-c2cnc3cnc(CN(C)c4ccc(C)cn4)cn23)cc1` [Compound 318, methyl N-[4-(6-{[methyl(5-methylpyridin-2-yl)amino]methyl}imidazo[1,2-a]pyrazin-3-yl)phenyl]carbamate], 2310 nM.

Values taken from patent US20150291598A1 (NOVARTIS AG, priority 2012, published 2015).
